Consider 12 compounds from PubChem BioAssay AID212 (DTP/NCI, 2004).

This assay deals with BDF1 mice, colon carcinoma 38 sc, T/C %. Nature of the assay: NCI In Vivo Anticancer Drug Screen. Data for tumor model Colon Carcinoma 38 (subcutaneous) in B6D2F1 (BDF1) mice. The method, boiled down: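 Ratio of survival or tumor size, compound-treated animals relative to vehicle controls, in tumor-bearing mice.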
Setting [1] is: endpoint: median tumor weight (est.), dose: 25.0 mg/kg/injection, schedule: Q07DX002 (ip), vehicle: Klucel (hydroxypropylcellulose) (HPC), higher = larger tumour.

Where “and” joins values, the source holds several entries; their conditions need not be identical. Equal values may be shown once. Inconclusive results are not listed.

As to `CCC(=O)O[C@H]1CC[C@H]2[C@@H]3CCC4=CC(=O)CC[C@]4(C)[C@H]3CC[C@]12C`, the T/C (endpoint: median tumor weight (est.), dose: 20.0 mg/kg/injection, schedule: Q07DX002 (ip), vehicle: Klucel (hydroxypropylcellulose) (HPC), higher = larger tumour) was 72 % of control; the T/C (endpoint: median tumor weight (est.), dose: 40.0 mg/kg/injection, schedule: Q07DX002 (ip), vehicle: Klucel (hydroxypropylcellulose) (HPC), higher = larger tumour) was 71 % of control and 81 % of control; the T/C (endpoint: median tumor weight (est.), dose: 40.0 mg/kg/injection, schedule: Q07DX002 (ip), vehicle: suspension in saline, higher = larger tumour) was 60 % of control; the T/C (endpoint: median tumor weight (est.), dose: 80.0 mg/kg/injection, schedule: Q07DX002 (ip), vehicle: suspension in saline, higher = larger tumour) was 93 % of control; the T/C (endpoint: median tumor weight (est.), dose: 160.0 mg/kg/injection, schedule: Q07DX002 (ip), vehicle: suspension in saline, higher = larger tumour) is 86 % of control; the T/C (endpoint: median tumor weight (est.), dose: 320.0 mg/kg/injection, schedule: Q07DX002 (ip), vehicle: suspension in saline, higher = larger tumour) was 99 % of control. The T/C reads like this: (endpoint: median tumor weight (est.), dose: 640.0 mg/kg/injection, schedule: Q07DX002 (ip), vehicle: Klucel (hydroxypropylcellulose) (HPC), higher = larger tumour) 89 % of control and 100 % of control and 101 % of control; (endpoint: median tumor weight (est.), dose: 640.0 mg/kg/injection, schedule: Q07DX002 (ip), vehicle: suspension in saline, higher = larger tumour) 86 % of control.

Turning to `COc1cc(NCc2ccc3nc(N)nc(N)c3c2C)cc(OC)c1OC`, the T/C is 183 % of control (endpoint: median survival time, dose: 5.2 mg/kg/injection, schedule: Q04HX021 (ip), vehicle: sodium bicarbonate, higher = longer survival); 120 % of control (endpoint: median survival time, dose: 5.9 mg/kg/injection, schedule: Q06HX014 (ip), vehicle: sodium bicarbonate, higher = longer survival); 194 % of control (endpoint: median survival time, dose: 8.4 mg/kg/injection, schedule: Q04HX021 (ip), vehicle: sodium bicarbonate, higher = longer survival); 116 % of control (endpoint: median survival time, dose: 8.8 mg/kg/injection, schedule: Q06HX012 (oral), vehicle: sodium bicarbonate, higher = longer survival); 175 % of control (endpoint: median survival time, dose: 8.8 mg/kg/injection, schedule: Q06HX014 (ip), vehicle: sodium bicarbonate, higher = longer survival); 177 % of control (endpoint: median survival time, dose: 20.0 mg/kg/injection, schedule: Q06HX012 (oral), vehicle: sodium bicarbonate, higher = longer survival). Further, the T/C (endpoint: median survival time, dose: 67.0 mg/kg/injection, schedule: Q07DX002 (ip), vehicle: sodium bicarbonate, higher = longer survival) was 157 % of control; the T/C (endpoint: median tumor weight (est.), dose: 1.88 mg/kg/injection, schedule: Q07DX002 (ip), vehicle: sodium bicarbonate, higher = larger tumour) is 152 % of control; the T/C (endpoint: median tumor weight (est.), dose: 12.5 mg/kg/injection, schedule: Q07DX002 (ip), vehicle: water, higher = larger tumour) is 121 % of control; the T/C (endpoint: median tumor weight (est.), dose: 25.0 mg/kg/injection, schedule: Q07DX002 (ip), vehicle: water, higher = larger tumour) is 109 % of control; the T/C (endpoint: median tumor weight (est.), dose: 50.0 mg/kg/injection, schedule: Q07DX002 (ip), vehicle: water, higher = larger tumour) is 109 % of control; the T/C (endpoint: median tumor weight (est.), dose: 53.0 mg/kg/injection, schedule: Q07DX002 (ip), vehicle: water, higher = larger tumour) is 85 % of control. The T/C by setting is: (endpoint: median tumor weight (est.), dose: 66.0 mg/kg/injection, schedule: Q07DX002 (ip), vehicle: water, higher = larger tumour) 90 % of control; (endpoint: median tumor weight (est.), dose: 70.0 mg/kg/injection, schedule: Q07DX002 (ip), vehicle: water, higher = larger tumour) 120 % of control; (endpoint: median tumor weight (est.), dose: 80.0 mg/kg/injection, schedule: Q07DX002 (ip), vehicle: water, higher = larger tumour) 82 % of control; (endpoint: median tumor weight (est.), dose: 99.0 mg/kg/injection, schedule: Q07DX002 (ip), vehicle: water, higher = larger tumour) 87 % of control; (endpoint: median tumor weight (est.), dose: 100.0 mg/kg/injection, schedule: Q07DX002 (ip), vehicle: water, higher = larger tumour) 217 % of control; (endpoint: median tumor weight (est.), dose: 105.0 mg/kg/injection, schedule: Q07DX002 (ip), vehicle: water, higher = larger tumour) 82 % of control. In addition, the T/C is 4 % of control (endpoint: median tumor weight (est.), dose: 120.0 mg/kg/injection, schedule: Q07DX002 (ip), vehicle: sodium bicarbonate, higher = larger tumour) and 83 % of control (endpoint: median tumor weight (est.), dose: 120.0 mg/kg/injection, schedule: Q07DX002 (ip), vehicle: water, higher = larger tumour).

`OC(CBr)C(O)C(O)C(O)CBr` (stereo not given): the T/C was 56 % of control under setting [1]; 85 % of control (endpoint: median tumor weight (est.), dose: 25.0 mg/kg/injection, schedule: Q07DX003 (ip), vehicle: saline with Tween-80, higher = larger tumour); 103 % of control (endpoint: median tumor weight (est.), dose: 50.0 mg/kg/injection, schedule: Q07DX002 (ip), vehicle: Klucel (hydroxypropylcellulose) (HPC), higher = larger tumour); 75 % of control (endpoint: median tumor weight (est.), dose: 50.0 mg/kg/injection, schedule: Q07DX003 (ip), vehicle: Klucel (hydroxypropylcellulose) (HPC), higher = larger tumour); 122 % of control (endpoint: median tumor weight (est.), dose: 100.0 mg/kg/injection, schedule: Q07DX003 (ip), vehicle: Klucel (hydroxypropylcellulose) (HPC), higher = larger tumour); 32 % of control (endpoint: median tumor weight (est.), dose: 200.0 mg/kg/injection, schedule: Q07DX003 (ip), vehicle: Klucel (hydroxypropylcellulose) (HPC), higher = larger tumour). The T/C (endpoint: median tumor weight (est.), dose: 200.0 mg/kg/injection, schedule: Q07DX003 (ip), vehicle: saline with Tween-80, higher = larger tumour) is 123 % of control; the T/C (endpoint: median tumor weight (est.), dose: 400.0 mg/kg/injection, schedule: Q07DX003 (ip), vehicle: Klucel (hydroxypropylcellulose) (HPC), higher = larger tumour) is 7 % of control; the T/C (endpoint: median tumor weight (est.), dose: 400.0 mg/kg/injection, schedule: Q07DX003 (ip), vehicle: saline with Tween-80, higher = larger tumour) was 105 % of control.

On to `COc1cc(NS(C)(=O)=O)ccc1Nc1c2ccccc2nc2ccccc12`, for which the T/C is 68 % of control (endpoint: median tumor weight (est.), dose: 0.5 mg/kg/injection, schedule: Q07DX003 (ip), vehicle: other, higher = larger tumour); 93 % of control (endpoint: median tumor weight (est.), dose: 1.0 mg/kg/injection, schedule: Q07DX002 (ip), vehicle: other, higher = larger tumour); 88 % of control (endpoint: median tumor weight (est.), dose: 1.0 mg/kg/injection, schedule: Q07DX003 (ip), vehicle: other, higher = larger tumour); 42 % of control (endpoint: median tumor weight (est.), dose: 2.0 mg/kg/injection, schedule: Q07DX003 (ip), vehicle: other, higher = larger tumour); 78 % of control and 91 % of control (endpoint: median tumor weight (est.), dose: 4.0 mg/kg/injection, schedule: Q07DX002 (ip), vehicle: other, higher = larger tumour); 56 % of control (endpoint: median tumor weight (est.), dose: 4.0 mg/kg/injection, schedule: Q07DX003 (ip), vehicle: other, higher = larger tumour). Besides, the T/C (endpoint: median tumor weight (est.), dose: 8.0 mg/kg/injection, schedule: Q07DX003 (ip), vehicle: other, higher = larger tumour) is 47 % of control.

On to `O=c1n(CC2CO2)c(=O)n(CC2CO2)n1CC1CO1` (stereo not given), for which the T/C is 25 % of control (endpoint: median tumor weight (est.), dose: 12.5 mg/kg/injection, schedule: Q07DX002 (ip), vehicle: saline, higher = larger tumour); 25 % of control (endpoint: median tumor weight (est.), dose: 25.0 mg/kg/injection, schedule: Q07DX002 (ip), vehicle: saline, higher = larger tumour); 18 % of control (endpoint: median tumor weight (est.), dose: 50.0 mg/kg/injection, schedule: Q07DX002 (ip), vehicle: saline, higher = larger tumour).

Regarding `c1ccc2c(c1)[As]=c1ccccc1=[As]2` (stereo not given), the T/C (endpoint: median tumor weight (est.), dose: 3.0 mg/kg/injection, schedule: Q07DX002 (ip), vehicle: saline, higher = larger tumour) is 124 % of control.

On to `[I][Hg][CH2]C1OCCOC1[CH2][Hg][I]` (stereo not given), for which the T/C by setting is: (endpoint: median tumor weight (est.), dose: 1.56 mg/kg/injection, schedule: Q07DX002 (ip), vehicle: Klucel (hydroxypropylcellulose) (HPC), higher = larger tumour) 93 % of control; (endpoint: median tumor weight (est.), dose: 3.12 mg/kg/injection, schedule: Q07DX002 (ip), vehicle: Klucel (hydroxypropylcellulose) (HPC), higher = larger tumour) 101 % of control; (endpoint: median tumor weight (est.), dose: 6.25 mg/kg/injection, schedule: Q07DX002 (ip), vehicle: Klucel (hydroxypropylcellulose) (HPC), higher = larger tumour) 92 % of control; (endpoint: median tumor weight (est.), dose: 12.5 mg/kg/injection, schedule: Q07DX002 (ip), vehicle: Klucel (hydroxypropylcellulose) (HPC), higher = larger tumour) 99 % of control and 106 % of control; under setting [1], 83 % of control and 91 % of control.

With `CCOc1cc2c(cc1C(C)c1ccc(OC)cc1)OCO2` (stereo not given), the T/C is 72 % of control (endpoint: median tumor weight (est.), dose: 50.0 mg/kg/injection, schedule: Q07DX002 (ip), vehicle: distilled water + Tween-80 + alcohol, higher = larger tumour); 100 % of control (endpoint: median tumor weight (est.), dose: 100.0 mg/kg/injection, schedule: Q07DX002 (ip), vehicle: distilled water + Tween-80 + alcohol, higher = larger tumour); 100 % of control (endpoint: median tumor weight (est.), dose: 400.0 mg/kg/injection, schedule: Q07DX002 (ip), vehicle: distilled water + Tween-80 + alcohol, higher = larger tumour).

As for `COc1cc2cc(c1Cl)N(C)C(=O)CC(OC(=O)CC(C)C)C1(C)OC1C(C)C1CC(O)(NC(=O)O1)C(OC)/C=C/C=C(C)C2` (stereo not given), the T/C (endpoint: median tumor weight (est.), dose: 6.2 micrograms/kg/injection, schedule: Q07DX003 (ip), vehicle: saline + alcohol, higher = larger tumour) was 121 % of control and the T/C (endpoint: median tumor weight (est.), dose: 25.0 micrograms/kg/injection, schedule: Q07DX003 (ip), vehicle: saline + alcohol, higher = larger tumour) was 75 % of control.

Consider `Cc1cc(NCCCCCCCNc2cc(C)nc3cc(N)ccc23)c2ccc(N)cc2n1`, for which the T/C (endpoint: median tumor weight (est.), dose: 1.56 mg/kg/injection, schedule: Q07DX002 (ip), vehicle: saline with Tween-80, higher = larger tumour) was 78 % of control.

On to `COc1cccc2c1C(=O)c1c(O)c3c(c(O)c1C2=O)C[C@@](O)(C(C)=O)C[C@@H]3OC1CC(N(C)C)C(O)C(C)O1` (stereo not given in full), for which the T/C reads like this: (endpoint: median survival time, dose: 6.4 mg/kg/injection, schedule: Q07DX002 (iv), vehicle: saline, higher = longer survival) 96 % of control; (endpoint: median survival time, dose: 10.0 mg/kg/injection, schedule: Q07DX002 (iv), vehicle: saline, higher = longer survival) 105 % of control; (endpoint: median tumor weight (est.), dose: 2.25 mg/kg/injection, schedule: Q07DX002 (ip), vehicle: saline, higher = larger tumour) 75 % of control and 89 % of control.

Consider `CC1=CC2OC3C(OC(=O)CCCCl)C(OC(=O)CCCCl)C(C)(C2(CO)CC1)C31CO1` (stereo not given), for which the T/C was 103 % of control (endpoint: median tumor weight (est.), dose: 2.0 mg/kg/injection, schedule: Q07DX003 (ip), vehicle: saline with Tween-80, higher = larger tumour); 76 % of control (endpoint: median tumor weight (est.), dose: 8.0 mg/kg/injection, schedule: Q07DX003 (ip), vehicle: saline with Tween-80, higher = larger tumour); 83 % of control (endpoint: median tumor weight (est.), dose: 16.0 mg/kg/injection, schedule: Q07DX003 (ip), vehicle: saline with Tween-80, higher = larger tumour).
